No end group written: not given here.
Tests used:
DIO C57BL/6NTac mice = assay: GTT in diet-induced obesity (DIO) mice; assay type: in vivo, mouse; settings: for insulin secretion in GTT: route comparison, n=6
Experimental: (§1) Male C57BL/6NTac mice (Taconic, Ejby, Denmark) at 8–9 weeks of age were acclimatised for 1 week on a normal chow diet, then changed to a high-fat diet for 2 weeks (diet-induced obesity; DIO), followed by GTT as indicated. Male Lepr^db (db/db) mice on a BKS background (Taconic) at 5 weeks of age were maintained on a normal chow diet and GTTs were performed at 5.5 and 14 weeks of age as indicated. Blood glucose levels were measured in fresh blood (C57: OneTouch Ultra2, Lifescan, Milpitas, CA, USA; db/db: GlucoSmart Swing, MSP bodmann, Bobingen, Germany) and insulin levels were assayed in serum using ELISA (Mercodia) at the times indicated in ESM Fig. 2. See ESM Methods for more details.
The effect of RG54 peptide on glucose disposal was investigated in an established insulin-resistant mouse model. DIO mice were fasted for 9 h followed by a single i.p. dose of RG54 (12 mg/kg), ApoA-I (14 mg/kg), liraglutide (0.1 mg/kg), or an equal volume of NaCl solution. After a further 3 h fasting period, GTTs were performed (Fig. 4a,b).
(§2) Fig. 4 Acute treatment with RG54 improves glucose tolerance during GTTs in three models of type 2 diabetes. Male C57Bl/6 mice fed a high-fat diet for 2 weeks (a–d) or db/db mice at 5.5 (e–h) or 14 (i–l) weeks old were fasted overnight, then treated with a single i.p. injection of NaCl (negative control, 200 μl; C57, n=12; db/db 5.5 weeks, n=6; db/db 14 weeks, n=6), liraglutide (0.1 mg/kg; C57, n=11; db/db 5.5 weeks, n=6; db/db 14 weeks, n=6), ApoA-I (14 mg/kg; C57, n=12; db/db 5.5 weeks, n=6; db/db 14 weeks, n=6) or RG54 (12 mg/kg; C57, n=12; db/db 5.5 weeks, n=6; db/db 14 weeks, n=5). After a further 3 h, mice received an i.p. glucose load (40 mg/mouse for C57; 50 mg/mouse for db/db) followed by blood and plasma collection at the indicated times, and blood glucose (a,e,i) and plasma insulin (b,f,j) concentrations were determined. Total AUC was calculated (mmol/l × min for glucose, pmol/l × min for insulin) and then normalised to the average value of the relevant NaCl control group to give relative AUC (% control) for glucose (c,g,k) and insulin (d,h,l). Values are means ± SEM. *p≤0.05, **p≤0.01, ***p≤0.001 vs NaCl control […]
We directly compared the i.p. and s.c. injection routes in DIO mice. DIO mice were fasted for 9 h, followed by a single i.p. or s.c. injection of RG54 (12 mg/kg), ApoA-I (14 mg/kg), or an equal volume of NaCl solution. After a further 3 h fasting and incubation period, GTTs were performed. […] Finally, we assessed the dose response of s.c. RG54 to find treatment concentrations with full or partial effects on glycaemic control as compared with our positive control (Fig. 6).
Male C57Bl/6 mice fed a high-fat diet for 2 weeks were fasted overnight, then treated with a single i.p. or s.c. injection of NaCl (negative control, 200 μl, n=6), ApoA-I (14 mg/kg, n=6) or RG54 (12 mg/kg, n=6). After a further 3 h, all mice received an i.p. glucose load (40 mg/mouse) followed by blood and plasma collection at the indicated times, and blood glucose (a,b) and plasma insulin (d,e) concentrations were determined for all injection routes. Total AUC was calculated (mmol/l × min for glucose, pmol/l × min for insulin) and then normalised to the average value of the relevant NaCl control group to give relative AUC (% control) for glucose (c) and insulin (f). Values are means ± SEM. ***p≤0.001 vs NaCl control […]
Male C57BL/6NTac mice were purchased from Taconic (Ejby, Denmark) at 8-9 weeks of age, acclimatised for one week on normal chow diet, then changed to a High-Fat Diet (HFD; Research Diets D12492, 60% fat content) for 2 weeks, followed by glucose tolerance testing (GTT) with timings as indicated (ESM Figure 2). Male Leprdb mice (db/db) on BKS background purchased from Taconic (BKS.Cg-m+/+Leprdb/BomTac, Ejby, Denmark) at 5 weeks of age were maintained on normal chow diet and GTTs were performed at 5.5 and 14 weeks of age with timings as indicated (ESM Figure 2). For the GTTs, mice fasted overnight […]

Lepr db (db/db) mice = assay: GTT in db/db mice; assay type: in vivo, mouse
Experimental: as §1, §2
We next used type 2 diabetes models with a more advanced phenotype: db/db mice at 5.5 and 14 weeks of age.
At 14 weeks of age, mice were markedly obese with a mean ± SEM body weight of 55.3 ± 0.6 g. […] One mouse was excluded from RG54 treatment group because of very high residual insulin secretion prior to the experiment.
Male C57BL/6NTac mice were purchased from Taconic (Ejby, Denmark) at 8-9 weeks of age, acclimatised for one week on normal chow diet, then changed to a High-Fat Diet (HFD; Research Diets D12492, 60% fat content) for 2 weeks, followed by glucose tolerance testing (GTT) with timings as indicated (ESM Figure 2). Male Leprdb mice (db/db) on BKS background purchased from Taconic (BKS.Cg-m+/+Leprdb/BomTac, Ejby, Denmark) at 5 weeks of age were maintained on normal chow diet and GTTs were performed at 5.5 and 14 weeks of age with timings as indicated (ESM Figure 2). For the GTTs, mice fasted overnight (9 h) were injected with the appropriate treatment, and after an additional 3 h given ip glucose (C57: 40 mg/mouse; db/db: 50 mg/mouse) followed by collection of serum samples at the indicated times. Blood glucose levels were measured in fresh blood (C57: OnetouchUltra2, Lifescan; db/db: GlucoSmart Swing, MSP bodmann) and insulin levels were assayed in serum using ELISA (Mercodia). db/db mice were independently randomized to treatments groups for GTT at each time point as no carry over was expected between experiments due to the acute nature of the treatment effects. Primary outcomes were blood glucose and insulin measurements during the GTT. C57BL/6NTac mice were euthanized immediately after each experiment whereas db/db were euthanized immediately after the GTT at 14 weeks of age. […]
and reproducible clinical symptoms of diabetes than females in these models [5; 6] thus ensuring the reproducibility of clinical symptoms between animals within the study. […]

[1] = db/db 5.5 weeks, 3 h treatment, i.p.

How did the fasting glucose levels (DIO C57BL/6NTac mice; DIO mice, 3 h treatment, i.p.) turn out when “Ac-AEYHAKATEHLSTLSEKAKPALEDLRQGLLPVLESFKVSFLSALEEYTKKLNTQ [RG54]” was run?
Its fasting glucose levels is “significantly lowered”.

What about the fasting insulin levels (DIO C57BL/6NTac mice; DIO mice, 3 h treatment, i.p.) of the same substance?
The fasting insulin levels was “no concomitant increase”.

What about the “insulin sensitivity as measured by QUICKI” value (DIO C57BL/6NTac mice; DIO mice, 3 h treatment, i.p.) of the same substance?
Its value is “no change”.

What about the “insulin secretion in GTT” value (DIO C57BL/6NTac mice; i.p. injection, RG54 12 mg/kg, ApoA-I 14 mg/kg) of the same substance?
Its value is “increased insulin secretion”.

And the “insulin secretion in GTT” value (DIO C57BL/6NTac mice; s.c. injection, 12 mg/kg)?
Its value is “increased glucose clearance and insulin secretion”.

And the “levels of serum insulin in GTT” value (DIO C57BL/6NTac mice; single i.p. dose 12 mg/kg 3 h before GTT, vs NaCl, n=12)?
The value was “significantly increased”.

What about the fasting glucose levels (Lepr db (db/db) mice; [1]) of the same substance?
The fasting glucose levels was “significantly lowered”.

What about the fasting insulin secretion (Lepr db (db/db) mice; [1]) of the same substance?
The fasting insulin secretion was “no significant changes”.

And the “insulin sensitivity as measured by QUICKI” value (Lepr db (db/db) mice; [1])?
Its value is “no concomitant change”.

And the “glucose AUC” value (Lepr db (db/db) mice; db/db 14 weeks, RG54 12 mg/kg i.p., n=5, vs NaCl)?
Its value is “no significant change”.

Reference: article PMC6560211, “ApoAI-derived peptide increases glucose tolerance and prevents formation of atherosclerosis in mice” (Diabetologia, 2019)
